Experimental data reported in ChEMBL document CHEMBL5465560, “Selectivity Literature for EUbOPEN Chemogenomic Library” (2024).

Columns and labels:
[1] = biological target: Serine/threonine-protein kinase/endoribonuclease IRE2 (Homo sapiens) (UniProt Q76MJ5); assay: Selectivity interaction (LanthaScreen Eu Kinase Binding Assay) EUB0001632a ERN2; conditions: at 10 µM
[2] = biological target: T1, Tyrosine-protein kinase Tec (Homo sapiens) (UniProt P42680); assay: Selectivity interaction (LanthaScreen Eu Kinase Binding Assay) EUB0001632a TEC; conditions: at 10 µM
T1 sequence (whole entry): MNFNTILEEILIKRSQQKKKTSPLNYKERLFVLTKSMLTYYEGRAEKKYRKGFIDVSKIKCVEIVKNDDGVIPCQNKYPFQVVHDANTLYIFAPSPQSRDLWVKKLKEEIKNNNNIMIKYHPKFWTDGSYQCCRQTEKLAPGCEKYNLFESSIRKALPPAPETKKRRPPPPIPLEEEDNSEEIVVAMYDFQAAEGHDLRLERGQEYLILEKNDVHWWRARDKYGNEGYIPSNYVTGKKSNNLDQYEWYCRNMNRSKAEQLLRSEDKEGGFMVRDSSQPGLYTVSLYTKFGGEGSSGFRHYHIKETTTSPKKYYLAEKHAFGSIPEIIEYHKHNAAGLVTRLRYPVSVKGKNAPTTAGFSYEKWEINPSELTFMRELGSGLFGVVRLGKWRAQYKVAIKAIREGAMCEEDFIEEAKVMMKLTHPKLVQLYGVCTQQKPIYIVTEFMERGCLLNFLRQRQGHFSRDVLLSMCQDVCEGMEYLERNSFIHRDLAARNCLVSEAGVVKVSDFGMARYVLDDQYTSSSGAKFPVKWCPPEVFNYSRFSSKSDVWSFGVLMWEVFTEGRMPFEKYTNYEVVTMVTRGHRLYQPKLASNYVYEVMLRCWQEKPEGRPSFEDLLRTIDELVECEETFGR

[3] = biological target: TRAF2 and NCK-interacting protein kinase (Homo sapiens) (UniProt Q9UKE5); assay: Selectivity interaction (KinomeScan (DiscoverX)) EUB0000666a TNIK; conditions: at 10 µM
Chain of TRAF2 and NCK-interacting protein kinase (Homo sapiens) (Q9UKE5 whole entry, looked up): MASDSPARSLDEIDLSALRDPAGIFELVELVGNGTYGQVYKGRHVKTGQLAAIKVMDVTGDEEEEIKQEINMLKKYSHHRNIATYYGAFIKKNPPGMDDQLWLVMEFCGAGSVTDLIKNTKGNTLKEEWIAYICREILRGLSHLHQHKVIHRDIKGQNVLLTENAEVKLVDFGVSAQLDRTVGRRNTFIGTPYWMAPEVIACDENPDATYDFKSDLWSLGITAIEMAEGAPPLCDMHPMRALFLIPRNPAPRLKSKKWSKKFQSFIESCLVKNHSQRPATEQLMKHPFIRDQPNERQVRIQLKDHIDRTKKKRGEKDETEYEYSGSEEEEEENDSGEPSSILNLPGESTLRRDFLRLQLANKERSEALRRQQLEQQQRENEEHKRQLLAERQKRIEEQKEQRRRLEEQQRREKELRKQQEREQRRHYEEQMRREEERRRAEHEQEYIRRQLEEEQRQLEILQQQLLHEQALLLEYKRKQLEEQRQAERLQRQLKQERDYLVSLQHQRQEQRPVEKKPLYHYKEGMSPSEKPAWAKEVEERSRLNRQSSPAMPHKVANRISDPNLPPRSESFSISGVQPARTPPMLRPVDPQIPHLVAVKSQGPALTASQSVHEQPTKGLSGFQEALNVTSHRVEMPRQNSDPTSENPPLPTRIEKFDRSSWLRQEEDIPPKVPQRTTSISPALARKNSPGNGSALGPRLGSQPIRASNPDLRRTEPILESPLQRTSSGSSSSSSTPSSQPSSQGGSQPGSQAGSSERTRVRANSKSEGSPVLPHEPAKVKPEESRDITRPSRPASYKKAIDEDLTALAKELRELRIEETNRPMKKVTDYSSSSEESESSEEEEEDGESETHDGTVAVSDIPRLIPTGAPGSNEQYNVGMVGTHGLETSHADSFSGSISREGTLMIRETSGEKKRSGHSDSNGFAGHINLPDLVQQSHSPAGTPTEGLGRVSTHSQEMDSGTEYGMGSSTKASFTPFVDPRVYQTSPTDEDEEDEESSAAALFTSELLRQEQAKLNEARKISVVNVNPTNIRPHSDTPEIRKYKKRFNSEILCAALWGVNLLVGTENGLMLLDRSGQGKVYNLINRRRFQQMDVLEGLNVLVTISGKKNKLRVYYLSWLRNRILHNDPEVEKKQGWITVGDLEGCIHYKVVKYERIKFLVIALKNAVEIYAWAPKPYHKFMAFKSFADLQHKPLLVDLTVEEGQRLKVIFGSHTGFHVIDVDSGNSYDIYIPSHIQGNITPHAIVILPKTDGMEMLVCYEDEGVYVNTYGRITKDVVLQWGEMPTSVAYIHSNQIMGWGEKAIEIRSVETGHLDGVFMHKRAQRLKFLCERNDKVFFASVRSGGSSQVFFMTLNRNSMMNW

[4] = biological target: Mitogen-activated protein kinase kinase kinase 9 (Homo sapiens) (UniProt P80192); conditions: at 10 µM
Chain of Mitogen-activated protein kinase kinase kinase 9 (Homo sapiens) (P80192 whole entry, looked up): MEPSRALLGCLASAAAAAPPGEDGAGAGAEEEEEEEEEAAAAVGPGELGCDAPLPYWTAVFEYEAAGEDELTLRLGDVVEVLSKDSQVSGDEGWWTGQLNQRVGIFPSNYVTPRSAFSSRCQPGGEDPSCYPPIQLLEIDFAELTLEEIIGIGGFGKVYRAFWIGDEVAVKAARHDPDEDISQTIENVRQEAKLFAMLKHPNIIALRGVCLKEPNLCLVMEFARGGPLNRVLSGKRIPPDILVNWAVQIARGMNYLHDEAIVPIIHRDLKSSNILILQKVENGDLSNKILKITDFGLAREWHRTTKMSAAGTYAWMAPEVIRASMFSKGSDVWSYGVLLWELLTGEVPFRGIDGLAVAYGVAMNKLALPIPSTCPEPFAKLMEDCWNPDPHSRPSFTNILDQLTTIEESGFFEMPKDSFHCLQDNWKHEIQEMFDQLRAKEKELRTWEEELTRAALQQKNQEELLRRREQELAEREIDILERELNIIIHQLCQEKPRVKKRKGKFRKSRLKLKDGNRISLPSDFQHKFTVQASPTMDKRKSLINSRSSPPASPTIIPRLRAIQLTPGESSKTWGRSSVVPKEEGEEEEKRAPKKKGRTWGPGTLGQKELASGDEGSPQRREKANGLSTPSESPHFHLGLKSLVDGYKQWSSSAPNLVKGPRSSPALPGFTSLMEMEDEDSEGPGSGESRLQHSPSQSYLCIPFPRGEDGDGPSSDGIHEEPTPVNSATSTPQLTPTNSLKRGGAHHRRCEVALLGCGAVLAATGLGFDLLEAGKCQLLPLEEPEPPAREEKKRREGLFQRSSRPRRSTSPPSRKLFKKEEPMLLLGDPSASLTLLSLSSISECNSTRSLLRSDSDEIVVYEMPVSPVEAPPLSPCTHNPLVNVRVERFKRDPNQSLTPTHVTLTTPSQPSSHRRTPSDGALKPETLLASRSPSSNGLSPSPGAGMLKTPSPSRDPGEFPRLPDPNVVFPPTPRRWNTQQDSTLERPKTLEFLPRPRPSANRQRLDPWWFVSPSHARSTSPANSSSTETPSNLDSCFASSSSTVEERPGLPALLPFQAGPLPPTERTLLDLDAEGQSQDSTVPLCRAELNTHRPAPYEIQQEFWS

[5] = test system: Receptor-type tyrosine-protein kinase FLT3 (Homo sapiens), P36888 [UNDEFINED MUTATION]; assay: Selectivity interaction (KinomeScan (DiscoverX)) EUB0001049a FLT3; conditions: at 1 µM
Chain of Receptor-type tyrosine-protein kinase FLT3 (Homo sapiens), P36888 [UNDEFINED MUTATION] (P36888 whole entry, looked up, change not shown): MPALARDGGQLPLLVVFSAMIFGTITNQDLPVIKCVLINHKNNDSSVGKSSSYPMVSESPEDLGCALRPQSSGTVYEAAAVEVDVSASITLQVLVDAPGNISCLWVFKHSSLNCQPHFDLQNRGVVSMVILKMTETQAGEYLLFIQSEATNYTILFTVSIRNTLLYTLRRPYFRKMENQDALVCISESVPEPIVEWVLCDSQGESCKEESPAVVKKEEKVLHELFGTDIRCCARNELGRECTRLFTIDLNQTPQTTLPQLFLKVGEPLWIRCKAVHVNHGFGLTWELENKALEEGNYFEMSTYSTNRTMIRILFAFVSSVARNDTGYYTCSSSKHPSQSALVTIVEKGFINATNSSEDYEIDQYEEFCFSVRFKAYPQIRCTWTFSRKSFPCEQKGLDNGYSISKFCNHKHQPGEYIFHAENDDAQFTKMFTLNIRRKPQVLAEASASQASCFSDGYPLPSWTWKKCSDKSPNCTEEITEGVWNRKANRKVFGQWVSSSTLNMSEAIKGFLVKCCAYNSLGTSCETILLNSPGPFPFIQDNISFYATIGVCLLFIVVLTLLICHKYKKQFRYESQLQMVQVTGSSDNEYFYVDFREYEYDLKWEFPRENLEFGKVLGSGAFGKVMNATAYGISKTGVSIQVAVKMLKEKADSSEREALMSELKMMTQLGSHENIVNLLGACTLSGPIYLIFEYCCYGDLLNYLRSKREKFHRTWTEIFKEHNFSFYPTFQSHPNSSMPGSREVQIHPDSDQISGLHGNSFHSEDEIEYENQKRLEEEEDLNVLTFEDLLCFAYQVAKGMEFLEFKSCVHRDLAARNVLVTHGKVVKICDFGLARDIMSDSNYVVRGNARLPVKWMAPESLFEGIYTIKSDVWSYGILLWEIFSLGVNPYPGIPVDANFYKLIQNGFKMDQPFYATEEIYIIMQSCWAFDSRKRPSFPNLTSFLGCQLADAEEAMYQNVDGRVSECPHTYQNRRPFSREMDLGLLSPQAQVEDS

[6] = biological target: Ribosomal protein S6 kinase alpha-1 (Homo sapiens, UniProt Q15418); assay: Selectivity interaction (ActivX KiNativ screen (ex vivo kinase selectivity in human PBMCs)) EUB0001619a RPS6KA1; format: cell-based; conditions: PBMC, at 1 µM
[7] = biological target: T2, 5-hydroxytryptamine receptor 3A (Homo sapiens) (UniProt P46098); assay: Selectivity interaction (Panel of kinases, GPCRs, ion channels and transporters (enzymatic assay)) EUB0000266bCl HTR3A
T2 sequence (whole entry): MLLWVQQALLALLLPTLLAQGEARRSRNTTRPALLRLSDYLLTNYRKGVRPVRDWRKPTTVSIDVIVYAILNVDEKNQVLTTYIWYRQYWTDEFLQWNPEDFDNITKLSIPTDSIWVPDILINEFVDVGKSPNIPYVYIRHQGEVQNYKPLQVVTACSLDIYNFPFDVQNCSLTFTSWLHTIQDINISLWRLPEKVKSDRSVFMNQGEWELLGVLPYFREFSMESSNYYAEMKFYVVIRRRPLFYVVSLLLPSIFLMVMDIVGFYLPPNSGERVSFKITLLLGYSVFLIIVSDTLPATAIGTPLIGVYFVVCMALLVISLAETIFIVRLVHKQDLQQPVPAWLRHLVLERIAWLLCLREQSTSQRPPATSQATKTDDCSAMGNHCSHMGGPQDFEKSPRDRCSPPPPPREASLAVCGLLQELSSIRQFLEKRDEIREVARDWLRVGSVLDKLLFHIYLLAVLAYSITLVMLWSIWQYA

[8] = biological target: Activin receptor type-2B (Homo sapiens) (UniProt Q13705); assay: Selectivity interaction (KinomeScan (DiscoverX)) EUB0000655a ACVR2B; conditions: at 10 µM
Chain of Activin receptor type-2B (Homo sapiens) (Q13705 whole entry): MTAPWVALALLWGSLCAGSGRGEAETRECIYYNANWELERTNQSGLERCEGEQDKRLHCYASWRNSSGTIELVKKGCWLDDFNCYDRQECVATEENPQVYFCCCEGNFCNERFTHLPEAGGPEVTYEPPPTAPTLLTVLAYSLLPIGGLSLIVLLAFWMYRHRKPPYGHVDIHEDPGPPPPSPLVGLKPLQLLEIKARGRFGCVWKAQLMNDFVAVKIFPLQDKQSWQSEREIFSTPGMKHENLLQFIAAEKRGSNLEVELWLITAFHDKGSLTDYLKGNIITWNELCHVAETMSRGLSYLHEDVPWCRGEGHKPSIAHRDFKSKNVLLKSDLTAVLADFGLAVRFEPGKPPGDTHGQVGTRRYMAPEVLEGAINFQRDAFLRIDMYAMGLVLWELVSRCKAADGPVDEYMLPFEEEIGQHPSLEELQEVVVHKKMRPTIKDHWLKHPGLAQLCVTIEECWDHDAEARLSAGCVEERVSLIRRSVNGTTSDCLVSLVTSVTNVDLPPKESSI

[9] = biological target: T3, Serine/threonine-protein kinase ULK3 (Homo sapiens) (UniProt Q6PHR2); assay: Selectivity interaction (KinomeScan (DiscoverX)) EUB0000092b ULK3; conditions: at 10 µM
T3 sequence (whole entry): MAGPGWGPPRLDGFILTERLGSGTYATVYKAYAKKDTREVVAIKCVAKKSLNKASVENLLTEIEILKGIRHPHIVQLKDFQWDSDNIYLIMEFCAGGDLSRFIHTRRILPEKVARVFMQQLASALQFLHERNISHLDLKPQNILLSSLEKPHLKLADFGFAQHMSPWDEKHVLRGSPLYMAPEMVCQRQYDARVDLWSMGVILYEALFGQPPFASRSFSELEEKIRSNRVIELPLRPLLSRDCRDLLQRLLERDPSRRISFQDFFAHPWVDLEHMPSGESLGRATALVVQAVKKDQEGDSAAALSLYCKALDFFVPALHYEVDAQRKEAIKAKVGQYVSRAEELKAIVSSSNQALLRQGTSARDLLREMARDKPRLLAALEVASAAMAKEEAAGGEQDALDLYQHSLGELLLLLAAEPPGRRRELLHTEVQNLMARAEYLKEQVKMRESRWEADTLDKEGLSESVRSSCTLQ

Chain of Serine/threonine-protein kinase/endoribonuclease IRE2 (Homo sapiens) (Q76MJ5 35-926 limits assumed): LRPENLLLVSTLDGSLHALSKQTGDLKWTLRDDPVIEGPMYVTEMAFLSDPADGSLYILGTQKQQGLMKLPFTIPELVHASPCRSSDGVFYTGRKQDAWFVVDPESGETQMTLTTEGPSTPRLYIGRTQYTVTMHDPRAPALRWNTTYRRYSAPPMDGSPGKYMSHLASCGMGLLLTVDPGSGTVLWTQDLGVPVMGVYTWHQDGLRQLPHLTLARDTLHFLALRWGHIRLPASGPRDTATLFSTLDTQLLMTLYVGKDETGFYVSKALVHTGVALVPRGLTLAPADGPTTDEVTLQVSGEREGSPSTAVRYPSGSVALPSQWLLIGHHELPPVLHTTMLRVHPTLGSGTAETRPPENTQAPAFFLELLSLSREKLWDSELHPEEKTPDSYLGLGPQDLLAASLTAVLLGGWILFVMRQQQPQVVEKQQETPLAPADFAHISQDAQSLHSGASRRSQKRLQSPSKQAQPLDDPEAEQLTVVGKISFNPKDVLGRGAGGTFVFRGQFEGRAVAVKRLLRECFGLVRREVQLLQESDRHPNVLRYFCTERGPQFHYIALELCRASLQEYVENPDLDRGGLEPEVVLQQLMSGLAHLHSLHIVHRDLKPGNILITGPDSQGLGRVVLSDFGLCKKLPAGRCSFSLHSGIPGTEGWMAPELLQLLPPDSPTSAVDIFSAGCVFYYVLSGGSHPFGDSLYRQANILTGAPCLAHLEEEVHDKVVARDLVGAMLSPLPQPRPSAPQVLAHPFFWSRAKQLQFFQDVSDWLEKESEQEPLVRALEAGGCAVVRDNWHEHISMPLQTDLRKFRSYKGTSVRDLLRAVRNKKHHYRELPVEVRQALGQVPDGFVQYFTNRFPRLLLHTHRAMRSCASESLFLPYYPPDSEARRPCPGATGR

Cn1cc(-n2cnc3c(NCc4nc5cc(Cl)c(Cl)cc5[nH]4)nc(N4CCOCC4)nc32)cn1
% of inhibition [1]: -30.9% | % of inhibition [2]: -15.6%

O=C(NOC[C@H](O)CO)c1ccc(F)c(F)c1Nc1ccc(I)cc1F
% of control [3]: 100%

Cc1cc([C@@H](C)Nc2ccccc2C(=O)O)c2nc(N3CCOCC3)cc(=O)n2c1 [AZD-6482]
% of control [4]: 91%

COc1cc(Nc2nc(C)cc(-c3cnn4nc(OC)ccc34)n2)cc(C(F)(F)F)c1
% of control [5]: 96%

N#Cc1cccc(-c2c[nH]c3ncnc(N4CCOCC4)c23)c1
% of inhibition [6]: 33%

CCn1c(-c2nc3cc(C(=O)N4CCCC(N)C4)ccc3n2C)cc2ccccc21 (centres undefined)
pXC50 [7]: 5.6 M

CN(C)CCOc1ccc(-c2nc(-c3ccncc3)c(-c3ccc4c(c3)CC/C4=N\O)[nH]2)cc1
% of control [8]: 98%

CCC(=O)N1CCN(c2ccc(-n3c(=O)ccc4cnc5ccc(-c6cnc7ccccc7c6)cc5c43)cc2C(F)(F)F)CC1
% of control [9]: 100%
